melting point [°C] | SMILES
149 to 151 | CNC(=O)CC1CN=C(c2cc3cc(Oc4ccc(S(C)(=O)=O)nc4)cc(OC(COC)COC)c3[nH]2)S1 (centres undefined)
167 to 170 | CCOC(=O)CC1(S(N)(=O)=O)c2ccccc2-c2ccccc21
262 to 263 | COc1ccc(/C=C/c2ccc3nc(C(=O)N[C@@H](Cc4ccc(OCc5ccccc5)cc4)C(=O)O)cn3c2)cc1
167 to 169 | COc1cc(C(=O)NS(=O)(=O)c2ccccc2)ccc1Cn1ncc2ccc(NC(=O)CC3CCCC3)cc21
49 to 50 | COC(=O)c1ccccc1Oc1ccccc1[N+](=O)[O-]
98 to 100 | CCC(C)(C)C(=O)Oc1cc2c(s1)CCN([C@H](C(=O)OC)c1ccccc1Cl)C2
141 to 143 | O=C(O)COc1ccc2c(c1)-c1nc(SC(c3ccccc3)c3ccccc3)sc1CC2
195 to 200 | O=C1N(c2ccc(F)cc2)c2ccccc2C1(O)c1cc2c(cc1O)OCCO2 (centres undefined)
167 to 168 | Cc1cc(C)cc(C(=O)c2c(C(C)C)c(=O)[nH]c(=O)n2CC2CCCC2)c1
211 to 213 | COn1c(=O)c2ccccc2n(-c2c(Cl)ccc(C)c2Cl)c1=O
62 to 64 | CON=C(c1ccccc1)c1ccc2c(c1)C(C)(C)CCN2CCOc1ccc(CC(OCC(F)(F)F)C(=O)O)cc1 (centres undefined)
218 to 221 | COc1cc(C(=O)N(C(C)C)C2CCCCC2)ccc1Cn1cccc2nc(C)nc1-2
82 to 84 | CCC(=O)C(CCCCCCOc1ccc(OCc2ccccc2)cc1)C(=O)CC
> 350 | Oc1cccc(-c2nc(Nc3ccc(Cl)cc3)c3ccccc3n2)n1
63 to 65 | CCOC(=O)c1cc(OCc2ccccc2)cc(OCc2ccccc2)c1
212 to 218 | Nc1ccc2c(c1)CN(CCC1CCCCN1S(=O)(=O)c1cccc3ccccc13)CC2 (centres undefined)
165 to 167 | CNC(=O)c1ccccc1Nc1nc(Nc2ccc(OC)c3c2N(C)C(=O)CCC3)ncc1Cl
190 | CC(=O)N[C@H](C(=O)N1C[C@@H]2C(=O)CCC(c3ccccc3)(c3ccccc3)[C@@H]2C1)c1ccccc1
172 | O=C(O)c1ccc2ccccc2c1OCC(F)(F)F
169 to 170 | CCOC(=O)c1c(Cn2cncn2)nc2sc3c(c2c1-c1ccc(OC)c(OC)c1)CN(C(=O)OCc1ccccc1)CC3

melting point [°C] | SMILES
96 to 97 | COc1ccc(CN2CCc3cc(OCc4ccccc4)c(OC)cc3C2)cc1
226 to 228 | O=C(Nc1ccc(C(=O)N2Cc3cccn3Cc3ccccc32)cc1)c1ccccc1C(F)(F)F
128 to 135 | COc1ccc(COc2cccc(OC)c2C(=O)/C=C(\Nc2cnc(C#N)cn2)SC)cc1
98 to 115 | COC(=O)CCc1cc2nc(C)ccc2n1S(=O)(=O)c1ccccc1
69 | CC(C)(C)OC(=O)C(CNC(=O)c1ccc(O)cc1)NC(=O)OCc1ccccc1 (centres undefined)
220 to 230 | CCOC(=O)c1cnn(C)c1C(=O)Nc1ccn2nc(-c3ccnc(F)c3)nc2c1
127 | Cc1ccc(S(=O)(=O)N2CCCC2c2ccc(F)c(F)c2)cc1 (racemic)
187 to 189 | NC(=O)N(O)CCNC(=O)Cc1ccccc1Nc1c(Cl)cccc1Cl
178 to 180 | NC(=O)c1cccc(-c2ccc(Oc3ccccc3)cc2)n1
143 to 144 | COC(=O)C1=C(C)NC(C)=C(C(=O)OCC=Cc2ccccc2)C1c1cccc([N+](=O)[O-])c1 (centres undefined)
178 to 179 | CCCCNC(=O)Nc1ccc(S(C)=O)cc1C(=O)NCC1CCN(C(c2ccccc2)c2ccccc2)CC1 (centres undefined)
68 to 76 | COc1cc2c(cc1Nc1ncc(Cl)c(Nc3cccnc3OC)n1)CCN(CC(=O)N(C)C)CC2
104 to 106 | CC(O)c1ccc(-c2ccc(C(=O)OCc3ccccc3)cc2)cc1 (single isomer, unassigned; (+))
100 to 103 | O=C(NCC1CCc2n[nH]cc2C1)[C@@H]1CCCN1C(=O)[C@@H](CC1CCCCC1)NS(=O)(=O)Cc1ccccc1 (some centres undefined)
87 to 91 | CCCCNc1cccc(-c2ccnc3c(C(=O)c4cccs4)cnn23)c1
250 | CCOC(=O)CCC(=O)Nc1ccc(-c2c[nH]c(=O)cn2)cc1
71 to 73 | CC(C)n1nc(C(=O)C(=O)c2ccccc2)ccc1=O
207 to 208 | O=S(=O)(Cc1ccccc1)Nc1ncc(-c2ccccc2)nc1Cc1ccccc1
110 to 111 | COc1ccc(CC(N(C)S(=O)(=O)c2ccc(C)cc2)C(C)(C)C(=O)Cl)cc1 (centres undefined)

The remaining lines, values behind:

SMILES | melting point [°C]
OCc1cc2occc2cn1 | 72 to 74
Cc1ccc(CC(CC(=O)N2CC3CC=CCC3C2)C(=O)O)cc1 (centres undefined) | 140 to 141
Cc1cc(-c2cc(C(F)(F)F)nn2-c2ccc(S(N)(=O)=O)c(Cl)c2)ccc1-c1cscn1 | 113 to 115
CC(C)CCOc1c(-c2ccc(S(C)(=O)=O)cc2)cnn(C(C)(C)C)c1=O | 138 to 139
CC(C)(O)C#Cc1ccc(-c2ccc(F)cc2)cc1 | 118
CCC#CCOc1cc2c(cc1/C=C/c1ccc(C(=O)O)cc1)C(C)(C)CCC2(C)C | 144 to 145
CC(C)(C)OC(=O)N1CCC[C@H]1COc1cnc(Cl)c(-c2ccc(Cl)cc2)c1 | 86 to 89
C=CCCOc1ccc(CCCO)c(Oc2ncc(C(F)(F)F)cc2Cl)c1 | 75.2 to 75.8
COc1ccc(Cc2nc(N(C)CCO)c3c(C)c(C#N)sc3n2)cc1OC | 62 to 63
CCOc1cnc(-c2ccc(O)cc2)nc1 | 202
COc1ccc2c(c1)CCC1=C2CCC2(CC(C)C)C(=O)CCC12 (centres undefined) | 117 to 119
O=C(Nc1ccc(-n2nc(C(F)(F)F)nc2Cl)cc1)c1ccncc1F | 167 to 170
O=C1C(I)=CC2COC1O2 (centres undefined) | 66 to 67
ON(Cc1ccccc1)Cc1ccc(CN(O)Cc2ccccc2)cc1 | 160 to 163
NS(=O)(=O)c1cccc2ccccc12 | 152 to 153
CN1CCN(c2nc3c(cc2F)c(=O)c(C(=O)O)cn3CCF)CC1 | 224 to 226
CCOC(=O)c1ncn2c1[C@@H]1CCN1C(=O)c1sccc1-2 | 188 to 191
COc1cc(Nc2c(C#N)cnc3cc4cc(OC)c(OCCCl)cc4cc23)c(Cl)cc1F | 193 to 204
CCOc1nc(C)nc(N)n1 | 172 to 174
CC(=O)Nc1ccc(Cl)c(O)c1 | 212

SMILES | melting point [°C]
CSc1cccc(Cc2sc(NC(C)=O)nc2C=O)c1 | 148 to 150
CSc1nc(F)cc2nnc(SCc3ccccc3)n12 | 74 to 77
O=[N+]([O-])c1cc(OCCCl)ccc1Cl | 46 to 48
OCCCc1cnoc1-c1ccc(Cl)c(F)c1 | 51 to 52
CNc1nc(C)c(C(=O)c2ccc(N)c(N)c2)s1 | 115 to 125
COCC1OC(n2cnc3c(N)nc(F)nc32)C(O)C1O (centres undefined) | 231 to 233
Cc1ccc(S(=O)(=O)NC(C)(C)C)o1 | 113 to 114
CCCCc1cc(C(=O)O)ncc1C(=O)O | 239
C[C@]1(COc2ccc(-c3nc(-c4ccc(Cl)cc4)co3)cc2)Cn2cc([N+](=O)[O-])nc2O1 | 249 to 252
C[C@@H]1Cc2cc([N+](=O)[O-])ccc2N1 | 63 to 64
CC(Oc1cc(-c2nn(C)c(OC(F)F)c2Cl)c(Cl)cc1Cl)C(=O)N(C)C (centres undefined) | 149
CC1(C(=O)NN)C(=O)Nc2cc3[nH]c(-c4ccncc4)nc3cc21 (centres undefined) | > 300
CCOC(=O)c1ccc(-c2ccc(C#N)cc2)cc1 | 114 to 115
CCc1c(Sc2cc(C)cc(C)c2)n(CC2=CCC(CO)C2)c(=O)[nH]c1=O (centres undefined) | 57 to 60
CCOC(=O)CC(=O)c1ccc(N)cc1 | 82 to 84
FCCOc1ccc(COCc2ccc(Cl)cc2)cc1 | 43 to 43.7
CCOC(=O)C(Br)=NNc1ccc(F)cc1 | 99 to 100
CC(C)(C)OC(=O)N1COC(=O)[C@@H]1CSCc1ccccc1 | 63 to 65
Cc1cc(=S)cc(C)n1CCNC(=O)OC(C)(C)C | 175 to 178
CCn1cc(C(=O)O)c(=O)c2cc(F)c(-c3ccnc(N)n3)cc21 | 245 to 247

SMILES | melting point [°C]
N#CN(Cc1ccccc1)c1ccccn1 | 65 to 66
CCCCCCCCCCCOc1ccc(C(=O)O)cc1OCCCCCCCCCCC | 98 to 101
CC(Oc1ncn(-c2ccc(OC(F)(F)F)cc2)n1)C(=O)O (centres undefined) | 200 to 203
CC(C)N1C(=O)NC(c2ccc3c(c2)OCCO3)c2cc3c(cc21)OCO3 (centres undefined) | 185 to 187
O=C(C=Cc1ccc(C(F)(F)F)cc1)N1CCC(O)CC1 | 124 to 135
Cc1csc2[nH]cc(C(=O)c3ccc(Cl)cc3)c12 | 223
COc1cc2c(cc1OC)C(Cc1cc(I)c(I)c(I)c1)N(C(=O)C(F)(F)F)CC2 (centres undefined) | 215 to 216
CCCCCCP1C(O)C(O)P(CCCCCC)C(O)C1O (centres undefined) | 140 to 147
C=C(c1ccn[nH]1)c1ccc(OCC(=O)OCC)c(Cl)c1Cl | 110 to 112
O=C1COCC(=O)N1CCCCCCN1CCCCC1 | 121 to 122
CN(C(=O)C1=NN(c2ccc(Cl)cc2)C(c2ccc(Cl)cc2)C1)c1ccc(C(F)(F)F)cc1 (centres undefined) | 181 to 183
O=C(O)CCCCCCC1C(=O)CCC1=O | 131 to 141
CCOC(=O)CC(=O)c1cccc([N+](=O)[O-])c1C | 50 to 51
COC(=O)C1N2C(=O)C(N3C(=O)c4ccccc4C3=O)C2SCC1(C)O (centres undefined) | 203
CC1(C)[C@@H](CN2CCCCC2)CC[C@@]1(C)NCC(=O)N1C[C@@H](F)C[C@H]1C#N | 100 to 103
CONC(c1ccccc1)c1cc(C(C)(C)C)c(O)c(C(C)(C)C)c1 (centres undefined) | 135 to 137
O=C(O)c1cc(OCCCOc2cccc(-c3ccccc3)c2)cc(OCCCOc2cccc(-c3ccccc3)c2)c1 | 65 to 69
CCCc1c(OCCCCCOc2ccc3c(=O)cc(C(=O)OCC)oc3c2CCC)ccc(C(C)=O)c1O | 90 to 91
COc1cccc2c1CCCC2N1CCN(C)CC1 (centres undefined) | 69 to 71
O=[N+]([O-])c1cccc(C2=NOCCS2)c1 | 114 to 115

— a melting point compilation (Tetko et al.; mined from patent text by program, amines drawn as free bases though some values may be those of a salt)
